# Measured values published in patent US9080173B2, “Methods and compositions for RNAi-based cancer treatment” (SILENSEED LTD., priority 2012, dated 2015).
# d = 2'-deoxy (DNA); r = 2'-OH (RNA)
# Tests used:
# Panc1-LUC tumors = test: Survival of SCIDbg mice with s.c. Panc1-LUC tumors; type: in vivo; details: 4 μg siG12D in 200 μl PBS i.p. weekly; over 41 days
# Method: Mice were injected s.c. with 10×10^6 Panc1-LUC tumor cells in a total volume of 100 μl PBS, or into the tail of the pancreas with 10^6 cells in a total volume of 30 μl PBS.
# In another experiment, 30 SCIDbg mice were injected s.c. with Panc1-LUC tumor cells, and were divided into 4 groups: (a) siG12D-DDD (12 μg siG12D per DDD)—2 DDD placed in each mouse; (b) empty DDD—2 DDD placed in each mouse; (c) 4 μg siG12D in 200 μl PBS injected intraperitoneally (i.p.) on a weekly basis; and (d) untreated. Tumor development was measured by caliper and Luciferase measurements. […] The difference in survival was statistically significant (p<0.05 compared to the other 3 groups).
# Panc1 cells = test: Methylene Blue viability test of transfected Panc1 cells, alone and with Gemzar; type: cell-based; details: 72h post-transfection; 1 hr of treatment with 10 μM Gemzar
# Method: FIG. 7. Gemzar® enhances siG12D-DDD effect. Panc1 cells were transfected using Lipofectamine™ with unmodified and modified siG12D and a scrambled (non-targeting) siRNA control molecule or were mock transfected (no siRNA). Cell viability was assessed 72 hrs post-transfection by the Methylene Blue (MB) test. Additional groups were transfected as described above, followed by 1 hr of treatment with 10 μM Gemzar®. The numbers 1-4 in the last column relate to the percent of inhibition of cellular growth, wherein the inhibition seen with the unmodified siRNA was assigned the value of 100%. 4, 3, 2, and 1 refer respectively to 75-100%, 50-75%, 25-50%, and 0-25% of the inhibition seen with the unmodified siRNA.
# Experimental procedure: Panc1 cells were transfected using Lipofectamine™ with unmodified and modified siG12D and a scrambled (non-targeting) siRNA control molecule or were mock transfected (no siRNA). Cell viability was assessed 72 hrs post-transfection by the Methylene Blue (MB) test. Additional groups were transfected as described above, followed by 1 hr of treatment with 10 μM Gemzar®. At the exemplary time point of 72h, Gemzar® enhanced the effect of siG12D by nearly 10%. […] Other time points, for example 48h, 72h, 96h and 120h, may be utilized in additional studies.
substance,measurement,setting,value
"sense GUUGGAGCUGAUGGCGUAGdTdT (SEQ ID No: 41), antisense CUACGCCAUCAGCUCCAACdTdT (SEQ ID No: 42) (sense GUUGGAGCUGAUGGCGUAGTT; antisense CUACGCCAUCAGCUCCAACTT; sugars from the 5' end r19 d2, backbone not given here) [siG12D, unmodified siRNA against G12D-mutated K-ras]",survival rate,Panc1-LUC tumors,33.33%
same,enhancement of the effect of siG12D on cell viability by Gemzar,Panc1 cells,~10%
